According to article PMC11883000, “Structure-function relationship of ASH1L and histone H3K36 and H3K4 methylation” (Nature Communications, 2025):

Tests used:
Ash1l = experiment: Western blot of Ash1l protein expression level; type: cell-based, mouse; settings: retinoic acid for 6 days
[1] = test system: Meis2 enhancer and promoter sites; experiment: ChIP-qPCR of Ash1l occupancy at Meis2 promoter and enhancers; type: cell-based, mouse; settings: for Ash1l occupancy, Meis2 Enh 1 / Ash1l occupancy, Meis2 Enh 2 / Ash1l occupancy, Meis2 Enh 3 / Ash1l occupancy, Meis2 promoter: Ash1l ChIP, + RA
Experimental: J1 ESCs were cultured feeder free on 0.1% gelatin-coated plates in ESC culture medium (Dulbecco’s modified Eagle’s medium (Hi-glucose), supplemented with 15% fetal bovine serum (Corning), non-essential amino acids, L-glutamine, β-mercaptoethanol, 1% penicillin/streptomycin, sodium pyruvate and 1000 U/mL leukemia inhibitory factor (LIF) (Ebioscience, 34-8521-82). For embryoid body formation, mouse ES cells were dissociated from gelatin-coated plates and seeded on non-adherent cell culture dishes (Greiner) at a density of 1 × 10^5 cells/mL in 10 mL of differentiation medium (ESC culture medium without LIF). Media was exchanged every 48 h and cells were collected at indicated time course. For neuronal differentiation, cells were plated on gelatin-coated plates at a density of 1×10^4 cells/cm^2 in ESC culture medium. The following day, medium was exchanged to differentiation medium +1 μM retinoic acid (RA) (Sigma) to induce differentiation. Medium was exchanged every 48 h for indicated time course. Total RNA was extracted with RNeasy Mini Kit (QIAGEN) and reverse transcribed using Superscript III Reverse Transcriptase (Life Technologies). qPCR analysis was performed using Brilliant III Ultra Fast SYBR Green QPCR Master Mix (Agilent Technologies). Gene expression data were normalized against Hprt/Gapdh and represented as fold change relative to the control. The relative expression values are shown as mean ± S.D. For ChIP-qPCR, chromatin occupancy was calculated as the ratio of the amount of immunoprecipitated DNA to that of the input sample (% input).

mouse ES cells [2] = experiment: qPCR of gene expression in mouse ES cells, RA-induced differentiation; type: cell-based; settings: for HoxA9 relative expression / Neurog2 relative expression / Olig1 relative expression / Runx1 relative expression: + RA 2 days, qPCR
Experimental: J1 ESCs were cultured feeder free on 0.1% gelatin-coated plates in ESC culture medium (Dulbecco’s modified Eagle’s medium (Hi-glucose), supplemented with 15% fetal bovine serum (Corning), non-essential amino acids, L-glutamine, β-mercaptoethanol, 1% penicillin/streptomycin, sodium pyruvate and 1000 U/mL leukemia inhibitory factor (LIF) (Ebioscience, 34-8521-82). For embryoid body formation, mouse ES cells were dissociated from gelatin-coated plates and seeded on non-adherent cell culture dishes (Greiner) at a density of 1 × 10^5 cells/mL in 10 mL of differentiation medium (ESC culture medium without LIF). Media was exchanged every 48 h and cells were collected at indicated time course. For neuronal differentiation, cells were plated on gelatin-coated plates at a density of 1×10^4 cells/cm^2 in ESC culture medium. The following day, medium was exchanged to differentiation medium +1 μM retinoic acid (RA) (Sigma) to induce differentiation. Medium was exchanged every 48 h for indicated time course.
Total RNA was extracted with RNeasy Mini Kit (QIAGEN) and reverse transcribed using Superscript III Reverse Transcriptase (Life Technologies). qPCR analysis was performed using Brilliant III Ultra Fast SYBR Green QPCR Master Mix (Agilent Technologies). Gene expression data were normalized against Hprt/Gapdh and represented as fold change relative to the control. The relative expression values are shown as mean ± S.D. For ChIP-qPCR, chromatin occupancy was calculated as the ratio of the amount of immunoprecipitated DNA to that of the input sample (% input).
CRISPR/Cas9 mediated editing was performed essentially as described. The designed gRNA ([…]) was cloned into the pSpCas9(BB)-2A-GFP (PX458) plasmid (a gift from Feng Zhang) and miniprepped using standard DNA miniprep procedures (Qiagen). J1 mES cells were transfected with sgRNAs or empty vector with Lipofectamine 2000 (ThermoFisher). Transfected cells were isolated by FACS at the Mount Sinai Flow Cytometry Core facility, and a single cell was plated per well in 96-well plates. Cells were cultured for 2-3 weeks until single colonies were visible. Cells were harvested and DNA was extracted using the QuickExtract solution (Epibio). PCR was performed using the following primers: Ash1l, F:TAGAAAGTCTGCACGGGCG, R:[…], Nestin, F:[…], R:[…], HoxA9, F:[…], R: […], Pax6, F:[…], R:[…], Gata4, F: […], R: […], Sox7, F:[…], R:[…], Pou5f1, F:[…], R:CAGGGCTTTCATGTCCTGG, Brachyury, F:GAGAGCGCAGGGAAGAGC, R:[…], Nkx2-5, F:[…], R:[…].

mouse ES cells [3] = experiment: RNA-seq analysis of differentiated mouse ES cells; type: cell-based; settings: RNA-seq data of ref 19
Experimental: RNA-seq data reported by Yin et al.[19] was analyzed to compare RNA from undifferentiated mouse ES cells to RNA from mouse ES cells differentiated under various conditions, as described in Fig. 1. Reads were filtered using Trimmomatic v0.40 and mapped to the mouse reference genome (mm9) by TopHat (version 2.0.10). Fragments were enumerated to the UCSC reference transcriptome using the hseq-count function from the HTSeq package (version 0.6.0). Genes with <5 fragments were filtered out and gene expression changes (FC > 1.5, FDR < 0.01) were analyzed using DESeq2 (v1.42.1), with undifferentiated cells as controls. Heatmaps were generated using either the ggplot2 or pheatmap packages with z-score normalization.
Supplementary Figure 1. Analysis of RNA-seq data reported by Yin et al. (ref. 19),
comparing RNA from undifferentiated mouse ES cells to RNA from mouse ES cells
differentiated under multiple conditions (see Figure 1). Gene expression changes (FC >
1.5, FDR < 0.01 ) in 4-day RA differentiated cells were identified using DESeq2, with
undifferentiated cells as controls.
after RA treatment. Related to Figure 1.
(1 picture or pasted object on this page, not shown here)

CC1=C(/C=C/C(C)=C/C=C/C(C)=C/C(=O)O)C(C)(C)CCC1 [RA, retinoic acid]
Ash1l protein expression level (Ash1l): highest | Ash1l occupancy, Meis2 Enh 1 ([1]; replicate 1): 0.01897 % input | Ash1l occupancy, Meis2 Enh 2 ([1]; replicate 1): 0.04268 % input | Ash1l occupancy, Meis2 Enh 3 ([1]; replicate 1): 0.02225 % input | Ash1l occupancy, Meis2 promoter ([1]; replicate 1): 0.06078 % input | Ash1l occupancy, Meis2 Enh 1 ([1]; replicate 2): 0.02319 % input | Ash1l occupancy, Meis2 Enh 2 ([1]; replicate 2): 0.04358 % input | Ash1l occupancy, Meis2 Enh 3 ([1]; replicate 2): 0.02683 % input | Ash1l occupancy, Meis2 promoter ([1]; replicate 2): 0.06121 % input | Ash1l occupancy, Meis2 Enh 1 ([1]; replicate 3): 0.01327 % input | Ash1l occupancy, Meis2 Enh 2 ([1]; replicate 3): 0.04413 % input | Ash1l occupancy, Meis2 Enh 3 ([1]; replicate 3): 0.02442 % input | Ash1l occupancy, Meis2 promoter ([1]; replicate 3): 0.05366 % input | Ash1l recruitment to promoter and enhancer sites of Meis2 ([1]; RA-induced ESC differentiation, ChIP-qPCR): recruited to promoter and enhancer sites | HoxA9 relative expression (mouse ES cells [2]; WT mES cells, replicate 1): 83.8652 | Neurog2 relative expression (mouse ES cells [2]; WT mES cells, replicate 1): 4.681 | Olig1 relative expression (mouse ES cells [2]; WT mES cells, replicate 1): 5.04 | Runx1 relative expression (mouse ES cells [2]; WT mES cells, replicate 1): 31.4139 | HoxA9 relative expression (mouse ES cells [2]; WT mES cells, replicate 2): 95.0095 | Neurog2 relative expression (mouse ES cells [2]; WT mES cells, replicate 2): 6.712 | Olig1 relative expression (mouse ES cells [2]; WT mES cells, replicate 2): 5.327 | Runx1 relative expression (mouse ES cells [2]; WT mES cells, replicate 2): 47.9458 | HoxA9 relative expression (mouse ES cells [2]; WT mES cells, replicate 3): 128.89 | Neurog2 relative expression (mouse ES cells [2]; WT mES cells, replicate 3): 11.2096 | Olig1 relative expression (mouse ES cells [2]; WT mES cells, replicate 3): 5.4768 | Runx1 relative expression (mouse ES cells [2]; WT mES cells, replicate 3): 42.0296 | transcriptional expression of Ash1l (mouse ES cells [2]; qPCR time course, RA-induced differentiation): dramatic and time-dependent increase | expression of HoxA9, Runx1, Neurog2, and Olig1 in CRISPR/Cas9 edited B7 clone (mouse ES cells [2]; retinoic acid, two days): altered expression | HoxA9 relative expression (mouse ES cells [2]; ΔAsh1l B7 clone, replicate 1): 9.646 | Neurog2 relative expression (mouse ES cells [2]; ΔAsh1l B7 clone, replicate 1): 28.3773 | Olig1 relative expression (mouse ES cells [2]; ΔAsh1l B7 clone, replicate 1): 3.982 | Runx1 relative expression (mouse ES cells [2]; ΔAsh1l B7 clone, replicate 1): 2.976 | HoxA9 relative expression (mouse ES cells [2]; ΔAsh1l B7 clone, replicate 2): 8.282 | Neurog2 relative expression (mouse ES cells [2]; ΔAsh1l B7 clone, replicate 2): 24.5333 | Olig1 relative expression (mouse ES cells [2]; ΔAsh1l B7 clone, replicate 2): 4.037 | Runx1 relative expression (mouse ES cells [2]; ΔAsh1l B7 clone, replicate 2): 2.4005 | HoxA9 relative expression (mouse ES cells [2]; ΔAsh1l B7 clone, replicate 3): 11.0043 | Neurog2 relative expression (mouse ES cells [2]; ΔAsh1l B7 clone, replicate 3): 29.378 | Olig1 relative expression (mouse ES cells [2]; ΔAsh1l B7 clone, replicate 3): 4.238 | Runx1 relative expression (mouse ES cells [2]; ΔAsh1l B7 clone, replicate 3): 2.591 | Ash1l expression upregulation (mouse ES cells [3]; 4 days RA differentiation, FDR < 0.01, vs undifferentiated): 1.96 fold | expression of Nsd1, all Mll family genes and several Plc genes (Ezh1, Ring1, Cbx7/8) (mouse ES cells [3]; RA differentiation): noticeably up-regulated | expression of Setd2, BRD2/3/4 and Ezh2 (mouse ES cells [3]; RA differentiation): down-regulated
